IC50 data for two molecules are collected here from BindingDB's records for doi:10.7270/Q22F7KMG (Eli Lilly, 1995).

In general, IC50 refers to the concentration that inhibits the measured activity by half. A higher IC50 goes with a need for much substance.

Assay [1] has as its target T1, Dimer of Gag-Pol polyprotein [489-587] (Human immunodeficiency virus 1, UniProt P12497).
T1 construct: 489-587
Nature of the assay: Protease Inhibition Assay. The settings on record: pH 5.5; 22 °C. An excerpt: In the presence of HIV-l protease, the substrate is rapidly cleaved into two parts. The biotinylated amino terminal fragment binds to the avidin Pandex beads while the FITC-containing carboxy1 terminal fragment is removed through the membrane.

Assay [2] addresses T2, Gag-Pol polyprotein [489-587] (Human immunodeficiency virus 1, UniProt P04585).
T2 construct: 489-587

On to `CC(C)(C)NC(=O)[C@@H]1C[C@@H]2SCC[C@@H]2CN1C[C@@H](O)[C@H](Cc1ccccc1)NC(=O)[C@@H](CS(=O)(=O)c1ccc2ccccc2c1)NS(C)(=O)=O` [(3aR,6S,7aS)-N-tert-butyl-5-[(2R,3S)-2-hydroxy-3-[(2S)-2-methanesulfonamido-3-(naphthalene-2-sulfonyl)propanamido]-4-phenylbutyl]-octahydrothieno[3,2-c]pyridine-6-carboxamide], for which the IC50 in assay [1] and in assay [2] was under 0.2 nM throughout.
Consider `CC(C)(C)NC(=O)[C@@H]1C[C@@H]2SCC[C@@H]2CN1C[C@@H](O)[C@H](Cc1ccccc1)NC(=O)[C@@H](CS(=O)(=O)c1ccc(F)cc1)NC(=O)C(F)(F)F` [(3aR,6S,7aS)-N-tert-butyl-5-[(2R,3S)-3-[(2S)-3-[(4-fluorobenzene)sulfonyl]-2-(2,2,2-trifluoroacetamido)propanamido]-2-hydroxy-4-phenylbutyl]-octahydrothieno[3,2-c]pyridine-6-carboxamide], for which the IC50 in assay [1] and in assay [2] was under 0.2 nM throughout.
